# From patent US10822632B2, “Medium for detecting Staphylococcus aureus, sheet for detecting S. aureus comprising same, and method for detecting S. aureus using same” (DAI NIPPON PRINTING CO., LTD., priority 2016, dated 2020)
# What was measured:
# Assay in all cases: Experiment 4: growth on culture sheet containing colistin sodium methanesulfonate
# Assay type in all cases: cell-based
# [1] = tested on: Staphylococcus aureus NBRC100910; details: tested concentration of 0.3 to 4.1 mg/cm^3 (0.1 to 1.6 mg/ml in the sample solution)
# Procedure: (§1) A given type of microbial strains to be tested were inoculated into a liquid medium (SCD broth medium), and culture was conducted at 35° C. for 24 hours to prepare a test microbial suspension. This test microbial suspension was diluted with phosphate buffered physiological saline to adjust the cell density to about 1 to 500 cfu/ml. The resulting test microbial sample (1 ml) was inoculated into the culture layer of the microorganism culture sheet prepared with the use of the medium liquid containing the components shown in Table 1 using a micropipette. The microorganism culture sheet into which the sample had been inoculated was allowed to stand in an incubator and culture was then conducted at 35° C. for 24 or 48 hours. After the completion of culture, the microorganism culture sheet was removed from the incubator. The color of the colony formed in the culture layer of the microorganism culture sheet and the color intensity were visually inspected. Each test microbial strain was subjected to the experiment described above. The names of the microbial strains to be tested used for the experiment and the conditions and the color of the colonies formed by the strains are shown in Table 2.
# (§2) A test microbial sample was prepared in the same manner as in Experiment 1. Also, the microorganism culture sheet was prepared in the same manner as in Experiment 1. […]
# [2] = tested on: Staphylococcus aureus ATCC25923; details: tested concentration of 0.3 to 4.1 mg/cm^3 (0.1 to 1.6 mg/ml in the sample solution)
# Procedure: as §1, §2
# [3] = tested on: Staphylococcus intermedius ATCC29663; design: key: the term “Inhibited” indicates the condition under which the growth was inhibited; a blank column indicates that a colony was formed under normal growth condition; details: culture 24 hours
# Procedure: as §1
# (§3) A test microbial sample was prepared in the same manner as in Experiment 1. Also, the microorganism culture sheet was prepared in the same manner as in Experiment 1. […] With the use of a micropipette, 1 ml of the test microbial sample was inoculated into a culture layer of the microorganism culture sheet. In the same manner as with Experiment 1, the microorganism culture sheet into which the sample had been inoculated was subjected to incubation, culture was conducted for 24 hours, and the color of the colony formed in the culture layer of the microorganism culture sheet and the color intensity were visually inspected. Each test microbial strain was subjected to the experiment described above. The names of the microbial strains to be tested used for the experiment and the conditions of the colonies formed by the strains are shown in Table 5. […] The colistin sodium methanesulfonate concentration indicated in the upper column is mass concentration (mg/cm^3) relative to the total volume of the dried culture layer before the sample was inoculated thereinto, and the concentration indicated in the lower column is mass concentration (mg/ml) relative to the total volume of the sample solution that was inoculated into the culture layer at the time of use.
# [4] = tested on: Staphylococcus sciuri ATCC29062; design: key to Growth condition of the colony: the term “Inhibited” indicates the condition under which the growth was inhibited; a blank column indicates that a colony was formed under normal growth condition; details: for Growth condition of the colony: culture 24 hours
# Procedure: as §1, §3
# [5] = tested on: Staphylococcus carnosus (Derived from roast beef); design: key to Growth condition of the colony: the term “Inhibited” indicates the condition under which the growth was inhibited; a blank column indicates that a colony was formed under normal growth condition; details: for Growth condition of the colony: culture 24 hours
# Procedure: as §1, §3
# [6] = tested on: Staphylococcus aureus NBRC12732; design: key to Growth condition of the colony: the term “Inhibited” indicates the condition under which the growth was inhibited; a blank column indicates that a colony was formed under normal growth condition; details: for Growth condition of the colony: culture 24 hours
# Procedure: as §1, §3
# [7] = tested on: Staphylococcus xylosus NBRC109770; design: key to Growth condition of the colony: the term “Inhibited” indicates the condition under which the growth was inhibited; a blank column indicates that a colony was formed under normal growth condition; details: for Growth condition of the colony: culture 24 hours
# Procedure: as §1, §3
# [8] = tested on: Staphylococcus saprophyticus subsp. saprophyticus NBRC102446; design: key to Growth condition of the colony: the term “Inhibited” indicates the condition under which the growth was inhibited; a blank column indicates that a colony was formed under normal growth condition; details: for Growth condition of the colony: culture 24 hours
# Procedure: as §1, §3
# [9] = colistin 3.3 mg/cm^3 dried culture layer (1.3 mg/ml sample solution)
# [10] = colistin 3.6 mg/cm^3 dried culture layer (1.4 mg/ml sample solution)
# [11] = colistin 3.8 mg/cm^3 dried culture layer (1.5 mg/ml sample solution)
# [12] = colistin 4.1 mg/cm^3 dried culture layer (1.6 mg/ml sample solution)
# [13] = colistin 2.3 mg/cm^3 dried culture layer (0.9 mg/ml sample solution)
# [14] = colistin 2.5 mg/cm^3 dried culture layer (1 mg/ml sample solution)
# [15] = colistin 2.8 mg/cm^3 dried culture layer (1.1 mg/ml sample solution)
# [16] = colistin 3.1 mg/cm^3 dried culture layer (1.2 mg/ml sample solution)
# [17] = mass concentration in the sample solution
# [18] = mass concentration relative to total volume of dried culture layer
# [19] = colistin 1.3 mg/cm^3 dried culture layer (0.5 mg/ml sample solution)
# [20] = colistin 1.5 mg/cm^3 dried culture layer (0.6 mg/ml sample solution)
# [21] = colistin 1.8 mg/cm^3 dried culture layer (0.7 mg/ml sample solution)
# [22] = colistin 2.0 mg/cm^3 dried culture layer (0.8 mg/ml sample solution)
substance,measurement,setting,value
colistin sodium methanesulfonate,Growth inhibition,[1],did not inhibit the growth
same,Growth inhibition,[2],did not inhibit the growth
same,Growth condition of the colony,[3]; [9],Inhibited
same,Growth condition of the colony,[3]; [10],Inhibited
same,Growth condition of the colony,[3]; [11],Inhibited
same,Growth condition of the colony,[3]; [12],Inhibited
same,Growth condition of the colony,[4]; [13],Inhibited
same,Growth condition of the colony,[4]; [14],Inhibited
same,Growth condition of the colony,[4]; [15],Inhibited
same,Growth condition of the colony,[4]; [16],Inhibited
same,Growth condition of the colony,[4]; [9],Inhibited
same,Growth condition of the colony,[4]; [10],Inhibited
same,Growth condition of the colony,[4]; [11],Inhibited
same,Growth condition of the colony,[4]; [12],Inhibited
same,Concentration at which growth was inhibited,[4]; [17],≥ 0.9 mg/mL
same,Concentration at which growth was inhibited,[4]; [18],≥ 2.3 mg/mL
same,Growth condition of the colony,[5]; [19],Inhibited
same,Growth condition of the colony,[5]; [20],Inhibited
same,Growth condition of the colony,[5]; [21],Inhibited
same,Growth condition of the colony,[5]; [22],Inhibited
same,Growth condition of the colony,[5]; [13],Inhibited
same,Growth condition of the colony,[5]; [14],Inhibited
same,Growth condition of the colony,[5]; [15],Inhibited
same,Growth condition of the colony,[5]; [16],Inhibited
same,Growth condition of the colony,[5]; [9],Inhibited
same,Growth condition of the colony,[5]; [10],Inhibited
same,Growth condition of the colony,[5]; [11],Inhibited
same,Growth condition of the colony,[5]; [12],Inhibited
same,Concentration at which growth was inhibited,[5]; [17],≥ 0.5 mg/mL
same,Concentration at which growth was inhibited,[5]; [18],≥ 1.3 mg/mL
same,Growth condition of the colony,[6]; [16],Inhibited
same,Growth condition of the colony,[6]; [9],Inhibited
same,Growth condition of the colony,[6]; [10],Inhibited
same,Growth condition of the colony,[6]; [11],Inhibited
same,Growth condition of the colony,[6]; [12],Inhibited
same,Concentration at which growth was inhibited,[6]; [17],1.2 mg/mL
same,Concentration at which growth was inhibited,[6]; [18],3.1 mg/mL
same,Growth condition of the colony,[7]; [13],Inhibited
same,Growth condition of the colony,[7]; [14],Inhibited
same,Growth condition of the colony,[7]; [15],Inhibited
same,Growth condition of the colony,[7]; [16],Inhibited
same,Growth condition of the colony,[7]; [9],Inhibited
same,Growth condition of the colony,[7]; [10],Inhibited
same,Growth condition of the colony,[7]; [11],Inhibited
same,Growth condition of the colony,[7]; [12],Inhibited
same,Concentration at which growth was inhibited,[7]; [17],≥ 0.9 mg/mL
same,Concentration at which growth was inhibited,[7]; [18],≥ 2.3 mg/mL
same,Growth condition of the colony,[8]; colistin 0.5 mg/cm^3 dried culture layer (0.2 mg/ml sample solution),Inhibited
same,Growth condition of the colony,[8]; colistin 0.8 mg/cm^3 dried culture layer (0.3 mg/ml sample solution),Inhibited
same,Growth condition of the colony,[8]; colistin 1.0 mg/cm^3 dried culture layer (0.4 mg/ml sample solution),Inhibited
same,Growth condition of the colony,[8]; [19],Inhibited
same,Growth condition of the colony,[8]; [20],Inhibited
same,Growth condition of the colony,[8]; [21],Inhibited
same,Growth condition of the colony,[8]; [22],Inhibited
same,Growth condition of the colony,[8]; [13],Inhibited
same,Growth condition of the colony,[8]; [14],Inhibited
same,Growth condition of the colony,[8]; [15],Inhibited
same,Growth condition of the colony,[8]; [16],Inhibited
same,Growth condition of the colony,[8]; [9],Inhibited
same,Growth condition of the colony,[8]; [10],Inhibited
same,Growth condition of the colony,[8]; [11],Inhibited
same,Growth condition of the colony,[8]; [12],Inhibited
same,Concentration at which growth was inhibited,[8]; [17],≥ 0.2 mg/mL
same,Concentration at which growth was inhibited,[8]; [18],≥ 0.5 mg/mL
